For one series, the target named is T1, hURAT1 (SLC22A12) (Homo sapiens, UniProt Q96S37).
T1 sequence (Q96S37 1-553): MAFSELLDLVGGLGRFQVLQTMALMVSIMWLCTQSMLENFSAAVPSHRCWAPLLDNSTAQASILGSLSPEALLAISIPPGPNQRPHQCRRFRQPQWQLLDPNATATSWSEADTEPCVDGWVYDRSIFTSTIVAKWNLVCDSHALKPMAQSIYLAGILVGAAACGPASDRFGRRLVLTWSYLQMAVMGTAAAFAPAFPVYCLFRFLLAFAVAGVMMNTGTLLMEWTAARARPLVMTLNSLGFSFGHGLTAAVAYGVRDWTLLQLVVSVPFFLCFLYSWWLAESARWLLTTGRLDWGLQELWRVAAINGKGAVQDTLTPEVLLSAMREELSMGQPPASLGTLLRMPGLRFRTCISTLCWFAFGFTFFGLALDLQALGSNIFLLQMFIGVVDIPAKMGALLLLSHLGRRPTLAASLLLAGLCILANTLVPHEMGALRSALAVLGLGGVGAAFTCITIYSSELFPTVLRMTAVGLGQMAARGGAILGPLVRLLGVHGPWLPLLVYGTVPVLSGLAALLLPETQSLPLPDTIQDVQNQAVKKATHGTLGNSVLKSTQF
Description: inhibition of 14C-urate uptake in oocytes expressing hURAT1. Type of series: cell-based. Conditions: for fold weaker hURAT1 inhibitor than (1): IC50 compared with (1) (26 nM); for IC50: hURAT1 IC50 (nM) ± SD, inhibition of 14C-urate uptake in oocytes expressing hURAT1.

A short description of series [1]: rat liver microsomal incubations, intrinsic clearance. It is filed as in vitro ADME. Conditions: Sprague-Dawley, microsomes, pH 7.4. A general note: Microsomes from liver hold many membrane-bound enzymes, among them those of drug oxidation.
The nature of series [2]: rat pharmacokinetics, intravenous. Type of series: in vivo, male Sprague-Dawley rats. Conditions: for AUC: male, Sprague-Dawley, rat, whole blood, iv, 0.5 mg/kg.
For series [3] the following is noted: cited from earlier work.

We go through 27 molecules from publication PMC3496402 (Drug Design, Development and Therapy, 2012).

Like-named read-outs stand apart in the source and are kept apart here.

One may read the IC50 as the concentration that gives 50% inhibition. A higher IC50 goes with weaker potency. In the case of `CCc1oc2ccccc2c1C(=O)c1cc(Cl)c(O)c(Cl)c1` [(19), (3,5-dichloro-4-hydroxyphenyl)(2-ethylbenzofuran-3-yl)methanone], on hURAT1 (SLC22A12), the “fold weaker hURAT1 inhibitor than (1)” value was ~ 15 fold and half-maximal inhibition (IC50) required 399 ± 56 nM. One may read the microsomal CLint as the capacity of the preparation to metabolise the compound, expressed as a volume cleared per time. A higher microsomal CLint goes with faster metabolism. The molecule `CCc1cc2c(C(=O)c3cc(Br)c(O)c(Br)c3)cc(Br)c(O)c2o1` [(26), (6-bromo-2-ethyl-7-hydroxybenzofuran-4-yl)(3,5-dibromo-4-hydroxyphenyl)methanone] gave a microsomal CLint at 1 µM in series [1] of 34.3 ± 1.2 µL/min/mg. Regarding `CCc1cc2c(C(=O)c3ccc(OC)cc3)cc(Br)c(O)c2o1` [(23), (6-bromo-2-ethyl-7-hydroxybenzofuran-4-yl)(4-methoxyphenyl)methanone], the microsomal CLint at 1 µM in series [1] was found to be 121 ± 12.2 µL/min/mg. As a reminder, the AUC is the area under the concentration-time curve, a measure of exposure. Read a high AUC as more exposure. As to `CCc1oc2ccc(O)cc2c1C(=O)c1cc(Br)c(O)c(Br)c1` [(8), (3,5-dibromo-4-hydroxyphenyl)(2-ethyl-5-hydroxybenzofuran-3-yl)methanone], the microsomal CLint at 1 µM in series [1] amounted to 52 ± 0.1 µL/min/mg. This molecule also had an AUC in series [2] of 940 ± 80 ng·h/mL. On hURAT1 (SLC22A12), `CCc1oc2ccccc2c1C(=O)c1cc(C)c(O)c(C)c1` [(15), (2-ethylbenzofuran-3-yl)(4-hydroxy-3,5-dimethylphenyl)methanone] came in with an IC50 of 7540 ± 60 nM. The molecule `CCc1cc2cc(O)cc(C(=O)c3cc(Br)c(O)c(Br)c3)c2o1` [(22), (3,5-dibromo-4-hydroxyphenyl)(2-ethyl-5-hydroxybenzofuran-7-yl)methanone] yielded a microsomal CLint at 1 µM in series [1] of 454 ± 18.2 µL/min/mg. In series [1], `CCc1oc2cc(Br)c(O)c(Br)c2c1C(=O)c1ccc(OC)cc1` [(7), (4,6-dibromo-2-ethyl-5-hydroxybenzofuran-3-yl)(4-methoxyphenyl)methanone] had a microsomal CLint at 1 µM of 286.8 ± 0.9 µL/min/mg. For `CCCCc1oc2ccccc2c1C(=O)c1ccc(O)cc1` [(17), (2-butylbenzofuran-3-yl)(4-hydroxyphenyl)methanone], the “hURAT1 inhibition compared with corresponding ethyl analog” value on hURAT1 (SLC22A12) (butyl versus ethyl analog, ethyl analog ref 10) is recorded as “much weaker inhibitor than the corresponding ethyl analog”. Take `CCc1oc2ccccc2c1C(=O)c1ccc(O)c(Br)c1` [(12), (3-bromo-4-hydroxyphenyl)(2-ethylbenzofuran-3-yl)methanone]: the midpoint of inhibition on hURAT1 (SLC22A12), the IC50, lay at 814 ± 160 nM. In the case of `CCc1oc2ccc(OC)cc2c1C(=O)c1cc(Br)c(O)c(Br)c1` [(6), (3,5-dibromo-4-hydroxyphenyl)(2-ethyl-5-methoxybenzofuran-3-yl)methanone], in series [1], the microsomal CLint at 1 µM is 44.9 ± 6.6 µL/min/mg. In series [2], this molecule registered an AUC of 2630 ± 250 ng·h/mL. `CCc1oc2ccccc2c1C(=O)c1ccc(O)c(Cl)c1` [(11), (3-chloro-4-hydroxyphenyl)(2-ethylbenzofuran-3-yl)methanone]: the IC50 on hURAT1 (SLC22A12) was 874 ± 56 nM. For the molecule `CCc1oc2ccc(OC)cc2c1C(=O)c1ccc(O)cc1` [(2), (2-ethyl-5-methoxybenzofuran-3-yl)(4-hydroxyphenyl)methanone], in series [1], the microsomal CLint at 1 µM was found to be 412 ± 6.4 µL/min/mg.

A word on the pKa: it is the negative logarithm of the acid dissociation constant. With `CC(C)(C)c1cccc(C(C)(C)C)c1O` [2,6-di-tert-butyl-phenol], the pKa in series [3] (phenol pKa values ref 11) was 10.2.

Turning to `CCc1oc2cc(O)ccc2c1C(=O)c1cc(Br)c(O)c(Br)c1` [(5), (3,5-dibromo-4-hydroxyphenyl)(2-ethyl-6-hydroxybenzofuran-3-yl)methanone], in series [1], the microsomal CLint at 1 µM was determined as 19.7 ± 2.8 µL/min/mg. The molecule further showed an AUC in series [2] of 6160 ± 680 ng·h/mL. As for `CCc1oc2ccccc2c1C(=O)c1ccc(O)c(I)c1` [(13), (2-ethylbenzofuran-3-yl)(4-hydroxy-3-iodophenyl)methanone], it took 1490 ± 80 nM to reach half-maximal inhibition against hURAT1 (SLC22A12) (IC50). Regarding `CCc1cc2cc(OC)cc(C(=O)c3cc(Br)c(O)c(Br)c3)c2o1` [(21), (3,5-dibromo-4-hydroxyphenyl)(2-ethyl-5-methoxybenzofuran-7-yl)methanone], the microsomal CLint at 1 µM in series [1] amounted to 210 ± 5.9 µL/min/mg. For the molecule `CCc1oc2ccc(F)cc2c1C(=O)c1cc(Br)c(O)c(Br)c1` [(9), (3,5-dibromo-4-hydroxyphenyl)(2-ethyl-5-fluorobenzofuran-3-yl)methanone], the microsomal CLint at 1 µM in series [1] is 142 ± 5.5 µL/min/mg. Besides, the AUC in series [2] turned out to be 5260 ± 810 ng·h/mL. Molecule `CCCCc1oc2ccccc2c1C(=O)c1cc(Br)c(O)c(Br)c1` [(18), (2-butylbenzofuran-3-yl)(3,5-dibromo-4-hydroxyphenyl)methanone] gave an IC50 on hURAT1 (SLC22A12) of 1930 ± 90 nM. As for `CCc1oc2ccccc2c1C(=O)c1cc(Br)c(O)c(Br)c1` [(1), (3,5-dibromo-4-hydroxyphenyl)(2-ethylbenzofuran-3-yl)methanone, reference compound], the intrinsic clearance (microsomal CLint) at 1 µM in series [1] amounted to 51.3 ± 6.7 µL/min/mg. Also, the AUC in series [2] came out at 9070 ± 590 ng·h/mL. Besides, the T1/2 in series [2] (parent compound, orbital sinus 0.5 mg/kg, blood, n = 3 ± SD) came to 1.1 ± 0.1 h. `CCc1cc2c(C(=O)c3cc(Br)c(O)c(Br)c3)c(OC)ccc2o1` [(24), (3,5-dibromo-4-hydroxyphenyl)(2-ethyl-5-methoxybenzofuran-4-yl)methanone] registered a microsomal CLint at 1 µM in series [1] of 323 ± 10.8 µL/min/mg. Consider `CCc1oc2cc(OC)c(Br)cc2c1C(=O)c1cc(Br)c(O)c(Br)c1` [(4), (5-bromo-2-ethyl-6-methoxybenzofuran-3-yl)(3,5-dibromo-4-hydroxyphenyl)methanone], for which, in series [1], the microsomal CLint at 1 µM is 23.5 ± 10.9 µL/min/mg. Regarding `O=c1[nH]c(=O)c2[nH]c(=O)[nH]c2[nH]1` [uric acid], in series [3] (in urine), the pKa is given as 5.4. Consider `CCc1oc2ccccc2c1C(=O)c1cc(Br)c(OC)c(Br)c1` [(16), (3,5-dibromo-4-methoxyphenyl)(2-ethylbenzofuran-3-yl)methanone], for which, at hURAT1 (SLC22A12), the “fold weaker hURAT1 inhibitor than (1)” value is reported as ~ 47 fold and the IC50 stood at 1220 ± 110 nM. For `CCc1oc2cc(OC)ccc2c1C(=O)c1cc(Br)c(O)c(Br)c1` [(3), (3,5-dibromo-4-hydroxyphenyl)(2-ethyl-6-methoxybenzofuran-3-yl)methanone], the intrinsic clearance (microsomal CLint) at 1 µM in series [1] was found to be 207 ± 4.2 µL/min/mg. The molecule also had an AUC in series [2] of 9600 ± 280 ng·h/mL. Regarding `CCc1cc2c(C(=O)c3cc(Br)c(O)c(Br)c3)c(O)ccc2o1` [(25), (3,5-dibromo-4-hydroxyphenyl)(2-ethyl-5-hydroxybenzofuran-4-yl)methanone], in series [1], the microsomal CLint at 1 µM came to 94.8 ± 5.1 µL/min/mg.

Turning to `CCc1cc2cc(OC)cc(C(=O)c3ccc(OC)cc3)c2o1` [(20), (2-ethyl-5-methoxybenzofuran-7-yl)(4-methoxyphenyl)methanone], the microsomal CLint at 1 µM in series [1] is 704 ± 12.7 µL/min/mg. Turning to `CCc1oc2ccccc2c1C(=O)c1ccc(O)c(F)c1` [(10), (2-ethylbenzofuran-3-yl)(3-fluoro-4-hydroxyphenyl)methanone], half-maximal inhibition at hURAT1 (SLC22A12) (IC50) required 2410 ± 90 nM.
